# Active and inactive are the calls of the source.
# Tests used:
# Genome polyprotein = Genome polyprotein (Hepatitis C virus, UniProt Q2Q167); assay: HCV core protein dimerization inhibitors, dose response, biochemical, TR-FRET (AID 2159); parameters: species or system Hepacivirus hominis;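 further: blocks dimerization of HCV core protein measured by TR-FRET between tagged core106 pairs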
# Vero [1] = assay: cytotoxicity of synthesized analogs in Vero 76, SAR follow-up, cytotoxicity control for West Nile virus antiviral project, Vero 76 cells (AID 2414); assay type: functional; details: Chlorocebus sabaeus
# Vero [2] = assay: cytotoxicity of synthesized analogs in Vero cells, SAR follow-up, cytotoxicity control for West Nile virus antiviral project, cell-based, set II (AID 2402); assay type: functional; details: Chlorocebus sabaeus
# [3] = molecular target: Ubiquitin carboxyl-terminal hydrolase BAP1 (Homo sapiens, UniProt Q92560); assay: BAP1 deubiquitinase inhibitors, dose response, biochemical (AID 714); assay type: functional
# Estrogen receptor beta [4] = molecular target: T1, Estrogen receptor beta (Homo sapiens, UniProt Q92731);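 further: recombinant ER-beta bound to coactivator SRC1 peptide in presence of estradiol agonist; inhibitors block coactivator peptide binding and lower the FRET signal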
# Estrogen receptor beta [5] = molecular target: T1, Estrogen receptor beta; assay: ERβ–SRC-3 coactivator interaction inhibitors, confirmation, orthogonal assay, biochemical, ELISA, streptavidin-HRP readout (AID 1060)
# [6] = molecular target: T2, Carboxy-terminal domain RNA polymerase II polypeptide A small phosphatase 1 (Homo sapiens, UniProt Q9GZU7); assay: inhibitors of CTDSP1, concentration-response testing, biochemical assay, absorbance-based, actives from ultra-high-throughput screening (AID 540297); assay type: functional
# T2 sequence (Q9GZU7 whole entry): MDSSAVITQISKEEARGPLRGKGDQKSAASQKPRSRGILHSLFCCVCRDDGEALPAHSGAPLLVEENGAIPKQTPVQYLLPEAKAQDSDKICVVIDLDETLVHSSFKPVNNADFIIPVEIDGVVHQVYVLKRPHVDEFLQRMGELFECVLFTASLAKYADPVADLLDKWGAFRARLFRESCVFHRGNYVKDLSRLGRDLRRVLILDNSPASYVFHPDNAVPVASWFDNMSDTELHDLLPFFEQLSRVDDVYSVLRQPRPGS
# [7] = molecular target: T3, Corticotropin-releasing factor receptor 2/Corticotropin-releasing factor-binding protein (Homo sapiens, UniProt P24387+Q13324); assay: activators of CRF receptor 2 with binding protein – uHTS hits, confirmation (AID 602473); assay type: functional; details: read-out: EC50_Mean
# T3 sequence (Q13324 whole entry): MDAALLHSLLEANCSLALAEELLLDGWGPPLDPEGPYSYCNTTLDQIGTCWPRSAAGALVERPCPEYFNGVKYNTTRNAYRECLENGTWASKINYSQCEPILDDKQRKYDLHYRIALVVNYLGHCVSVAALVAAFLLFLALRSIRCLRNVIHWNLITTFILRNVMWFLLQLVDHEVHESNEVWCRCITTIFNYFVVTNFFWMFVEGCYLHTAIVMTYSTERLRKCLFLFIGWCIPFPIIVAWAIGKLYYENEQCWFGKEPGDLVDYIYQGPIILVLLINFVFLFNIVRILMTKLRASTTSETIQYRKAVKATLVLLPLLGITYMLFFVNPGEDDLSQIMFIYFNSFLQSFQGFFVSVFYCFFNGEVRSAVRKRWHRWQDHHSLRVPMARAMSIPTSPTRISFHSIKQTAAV
# T3 sequence (P24387 whole entry): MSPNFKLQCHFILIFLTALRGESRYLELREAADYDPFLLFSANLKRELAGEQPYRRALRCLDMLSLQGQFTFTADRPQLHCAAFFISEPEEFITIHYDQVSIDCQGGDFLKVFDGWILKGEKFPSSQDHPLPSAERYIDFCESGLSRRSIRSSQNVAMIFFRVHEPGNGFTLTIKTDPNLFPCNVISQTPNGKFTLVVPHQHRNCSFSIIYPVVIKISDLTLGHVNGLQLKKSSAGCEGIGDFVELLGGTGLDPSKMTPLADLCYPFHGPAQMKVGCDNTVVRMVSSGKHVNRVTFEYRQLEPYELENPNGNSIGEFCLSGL
# [8] = molecular target: Diphosphomevalonate decarboxylase (Streptococcus pneumoniae serotype 2 (strain D39 / NCTC 7466), UniProt Q9FD53); assay: S. pneumoniae DPM-DC inhibition retest, confirmation, biochemical, cuvette format, coupled NADH fluorescence (AID 1028); assay type: functional
# [9] = molecular target: Voltage-gated N-type calcium channel alpha-1B subunit/Amyloid beta A4 precursor protein-binding family A member 1 (Homo sapiens, UniProt Q00975+Q02410); assay type: protein assay
# Bcl-2-related protein A1 [10] = molecular target: T4, Bcl-2-related protein A1 (Mus musculus, UniProt Q07440); assay: Bfl-1 inhibitors, primary screen, biochemical, fluorescence polarization, FITC-Bid, mouse (AID 432)
# T4 sequence (Q07440 whole entry): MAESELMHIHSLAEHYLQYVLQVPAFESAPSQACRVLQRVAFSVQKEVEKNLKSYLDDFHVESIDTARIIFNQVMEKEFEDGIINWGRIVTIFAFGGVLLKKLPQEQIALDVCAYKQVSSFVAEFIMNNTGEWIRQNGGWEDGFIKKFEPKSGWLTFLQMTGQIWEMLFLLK
# Bcl-2-related protein A1 [11] = molecular target: T4, Bcl-2-related protein A1; assay: Bfl-1 inhibitors blocking BH3 peptide binding, confirmation, biochemical, TR-FRET, mouse Bfl-1 (AID 621);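 further: TR-FRET binding of GST-Bfl-1 to FITC-labelled Bid peptide via terbium antibody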
# [12] = Luminescent dose response cell-based high throughput screening assay for inhibitors of the Janus kinase 2 mutant JAK2V617F. [Related pubchem assays: 1446 (Primary screen.), 1521 (Confirmation assay.), 1486 (Counter screen.)]; assay type: functional
# T1 sequence (Q92731 whole entry): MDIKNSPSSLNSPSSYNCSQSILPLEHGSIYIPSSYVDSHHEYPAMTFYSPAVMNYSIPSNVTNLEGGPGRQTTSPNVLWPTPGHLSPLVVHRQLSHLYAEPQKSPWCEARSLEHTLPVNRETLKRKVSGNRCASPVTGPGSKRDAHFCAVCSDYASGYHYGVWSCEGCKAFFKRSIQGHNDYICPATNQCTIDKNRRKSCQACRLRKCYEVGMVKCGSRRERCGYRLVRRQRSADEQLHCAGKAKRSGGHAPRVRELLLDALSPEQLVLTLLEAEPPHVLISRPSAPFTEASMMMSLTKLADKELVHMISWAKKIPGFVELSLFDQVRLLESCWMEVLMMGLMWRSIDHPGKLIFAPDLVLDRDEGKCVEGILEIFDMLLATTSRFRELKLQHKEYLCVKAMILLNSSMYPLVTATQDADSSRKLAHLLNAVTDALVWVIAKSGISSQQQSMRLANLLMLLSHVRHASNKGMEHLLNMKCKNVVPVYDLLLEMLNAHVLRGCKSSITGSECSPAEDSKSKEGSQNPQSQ
# Chain of Diphosphomevalonate decarboxylase (Q9FD53 whole entry): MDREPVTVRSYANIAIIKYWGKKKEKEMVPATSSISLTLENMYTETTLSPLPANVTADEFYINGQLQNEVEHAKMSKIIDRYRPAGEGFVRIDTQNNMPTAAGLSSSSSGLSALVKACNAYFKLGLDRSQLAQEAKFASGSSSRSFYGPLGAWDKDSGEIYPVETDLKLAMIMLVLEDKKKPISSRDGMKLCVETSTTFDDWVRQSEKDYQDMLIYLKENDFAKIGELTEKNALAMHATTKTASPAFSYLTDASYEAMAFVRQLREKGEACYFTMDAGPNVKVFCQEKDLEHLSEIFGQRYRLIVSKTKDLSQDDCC
# Chain of Ubiquitin carboxyl-terminal hydrolase BAP1 (Q92560 whole entry): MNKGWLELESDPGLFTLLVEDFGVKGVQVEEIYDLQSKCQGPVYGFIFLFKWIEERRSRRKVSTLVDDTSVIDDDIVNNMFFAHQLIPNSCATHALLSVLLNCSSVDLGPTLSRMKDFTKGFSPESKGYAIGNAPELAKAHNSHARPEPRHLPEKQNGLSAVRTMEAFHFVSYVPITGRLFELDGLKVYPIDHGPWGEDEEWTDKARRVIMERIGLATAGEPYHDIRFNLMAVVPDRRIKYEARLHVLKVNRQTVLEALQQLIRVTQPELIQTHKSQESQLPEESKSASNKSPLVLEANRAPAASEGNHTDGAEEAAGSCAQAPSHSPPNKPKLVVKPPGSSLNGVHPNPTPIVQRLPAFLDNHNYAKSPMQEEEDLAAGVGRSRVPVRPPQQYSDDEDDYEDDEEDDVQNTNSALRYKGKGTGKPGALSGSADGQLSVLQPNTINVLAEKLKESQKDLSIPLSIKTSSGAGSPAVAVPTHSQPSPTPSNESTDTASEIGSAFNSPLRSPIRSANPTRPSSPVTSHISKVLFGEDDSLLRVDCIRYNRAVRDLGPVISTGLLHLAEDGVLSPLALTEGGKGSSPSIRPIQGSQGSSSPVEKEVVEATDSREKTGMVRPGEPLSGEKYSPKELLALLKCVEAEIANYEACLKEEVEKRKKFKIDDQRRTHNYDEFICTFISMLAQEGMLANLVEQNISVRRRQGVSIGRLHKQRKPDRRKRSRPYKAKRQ
# Chain of Genome polyprotein (Q2Q167 whole entry): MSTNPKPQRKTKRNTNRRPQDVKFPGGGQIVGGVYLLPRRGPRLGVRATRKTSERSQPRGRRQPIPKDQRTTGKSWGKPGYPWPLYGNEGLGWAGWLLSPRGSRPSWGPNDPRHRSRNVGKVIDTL
# Chain of Voltage-gated N-type calcium channel alpha-1B subunit/Amyloid beta A4 precursor protein-binding family A member 1 (Q00975 whole entry): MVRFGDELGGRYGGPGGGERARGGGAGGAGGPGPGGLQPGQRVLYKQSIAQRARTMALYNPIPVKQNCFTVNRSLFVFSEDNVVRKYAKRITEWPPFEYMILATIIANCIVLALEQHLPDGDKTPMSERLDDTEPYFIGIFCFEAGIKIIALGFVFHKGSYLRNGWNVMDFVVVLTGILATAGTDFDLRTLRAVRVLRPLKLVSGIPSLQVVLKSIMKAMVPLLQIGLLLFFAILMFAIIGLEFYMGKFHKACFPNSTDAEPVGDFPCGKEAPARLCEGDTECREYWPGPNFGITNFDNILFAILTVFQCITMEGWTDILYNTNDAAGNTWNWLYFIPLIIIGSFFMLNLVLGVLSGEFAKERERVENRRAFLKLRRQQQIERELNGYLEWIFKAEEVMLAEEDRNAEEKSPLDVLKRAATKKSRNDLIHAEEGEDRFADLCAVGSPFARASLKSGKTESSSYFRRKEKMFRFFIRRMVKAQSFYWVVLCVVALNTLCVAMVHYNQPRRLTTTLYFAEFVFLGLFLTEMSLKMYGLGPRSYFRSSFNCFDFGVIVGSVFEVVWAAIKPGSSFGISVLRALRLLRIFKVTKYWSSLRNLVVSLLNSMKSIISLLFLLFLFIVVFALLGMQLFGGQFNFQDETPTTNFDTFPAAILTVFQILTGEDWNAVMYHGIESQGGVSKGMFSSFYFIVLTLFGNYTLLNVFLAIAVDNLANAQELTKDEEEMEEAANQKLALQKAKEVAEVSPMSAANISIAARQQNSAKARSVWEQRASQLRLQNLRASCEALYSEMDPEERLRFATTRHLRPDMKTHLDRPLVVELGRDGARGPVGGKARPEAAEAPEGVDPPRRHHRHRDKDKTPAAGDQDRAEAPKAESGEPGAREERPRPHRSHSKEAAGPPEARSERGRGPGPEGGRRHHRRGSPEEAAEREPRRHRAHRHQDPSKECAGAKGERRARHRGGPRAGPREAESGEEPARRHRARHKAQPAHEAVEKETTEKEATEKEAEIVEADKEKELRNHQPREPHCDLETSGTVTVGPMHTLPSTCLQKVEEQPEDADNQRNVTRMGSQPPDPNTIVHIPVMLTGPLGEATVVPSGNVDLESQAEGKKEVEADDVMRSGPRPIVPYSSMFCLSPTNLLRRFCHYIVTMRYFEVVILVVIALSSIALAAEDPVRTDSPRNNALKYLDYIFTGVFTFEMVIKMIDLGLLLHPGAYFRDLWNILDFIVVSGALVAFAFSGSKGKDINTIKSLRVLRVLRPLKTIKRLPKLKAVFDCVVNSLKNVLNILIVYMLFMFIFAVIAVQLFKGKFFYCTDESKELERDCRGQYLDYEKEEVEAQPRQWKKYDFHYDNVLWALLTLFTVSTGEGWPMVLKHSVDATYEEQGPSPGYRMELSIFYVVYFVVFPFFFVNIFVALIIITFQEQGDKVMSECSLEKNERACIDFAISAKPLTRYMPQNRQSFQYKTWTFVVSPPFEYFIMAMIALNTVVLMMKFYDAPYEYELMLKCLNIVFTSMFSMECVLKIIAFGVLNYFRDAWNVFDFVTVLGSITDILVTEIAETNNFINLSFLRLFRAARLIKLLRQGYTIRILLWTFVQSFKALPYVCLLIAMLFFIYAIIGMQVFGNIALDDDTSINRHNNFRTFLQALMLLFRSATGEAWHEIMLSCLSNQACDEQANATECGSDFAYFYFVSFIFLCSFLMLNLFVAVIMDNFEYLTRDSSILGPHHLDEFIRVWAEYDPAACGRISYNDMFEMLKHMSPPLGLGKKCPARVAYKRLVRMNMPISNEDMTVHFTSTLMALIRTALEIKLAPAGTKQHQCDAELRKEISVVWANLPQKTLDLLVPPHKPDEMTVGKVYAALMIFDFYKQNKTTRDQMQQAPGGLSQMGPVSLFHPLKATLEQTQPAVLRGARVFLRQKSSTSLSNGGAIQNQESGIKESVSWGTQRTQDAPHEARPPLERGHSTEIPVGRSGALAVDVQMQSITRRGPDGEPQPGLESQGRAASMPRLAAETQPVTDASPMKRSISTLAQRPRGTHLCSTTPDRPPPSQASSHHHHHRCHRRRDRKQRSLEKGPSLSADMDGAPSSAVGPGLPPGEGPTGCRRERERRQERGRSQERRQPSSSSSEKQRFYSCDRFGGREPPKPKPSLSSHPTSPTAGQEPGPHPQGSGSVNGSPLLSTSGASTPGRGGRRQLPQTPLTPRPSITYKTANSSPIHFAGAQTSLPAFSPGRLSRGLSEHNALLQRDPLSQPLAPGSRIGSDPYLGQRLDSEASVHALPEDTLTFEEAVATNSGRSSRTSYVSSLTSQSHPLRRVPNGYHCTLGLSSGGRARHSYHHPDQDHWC
# Chain of Voltage-gated N-type calcium channel alpha-1B subunit/Amyloid beta A4 precursor protein-binding family A member 1 (Q02410 whole entry): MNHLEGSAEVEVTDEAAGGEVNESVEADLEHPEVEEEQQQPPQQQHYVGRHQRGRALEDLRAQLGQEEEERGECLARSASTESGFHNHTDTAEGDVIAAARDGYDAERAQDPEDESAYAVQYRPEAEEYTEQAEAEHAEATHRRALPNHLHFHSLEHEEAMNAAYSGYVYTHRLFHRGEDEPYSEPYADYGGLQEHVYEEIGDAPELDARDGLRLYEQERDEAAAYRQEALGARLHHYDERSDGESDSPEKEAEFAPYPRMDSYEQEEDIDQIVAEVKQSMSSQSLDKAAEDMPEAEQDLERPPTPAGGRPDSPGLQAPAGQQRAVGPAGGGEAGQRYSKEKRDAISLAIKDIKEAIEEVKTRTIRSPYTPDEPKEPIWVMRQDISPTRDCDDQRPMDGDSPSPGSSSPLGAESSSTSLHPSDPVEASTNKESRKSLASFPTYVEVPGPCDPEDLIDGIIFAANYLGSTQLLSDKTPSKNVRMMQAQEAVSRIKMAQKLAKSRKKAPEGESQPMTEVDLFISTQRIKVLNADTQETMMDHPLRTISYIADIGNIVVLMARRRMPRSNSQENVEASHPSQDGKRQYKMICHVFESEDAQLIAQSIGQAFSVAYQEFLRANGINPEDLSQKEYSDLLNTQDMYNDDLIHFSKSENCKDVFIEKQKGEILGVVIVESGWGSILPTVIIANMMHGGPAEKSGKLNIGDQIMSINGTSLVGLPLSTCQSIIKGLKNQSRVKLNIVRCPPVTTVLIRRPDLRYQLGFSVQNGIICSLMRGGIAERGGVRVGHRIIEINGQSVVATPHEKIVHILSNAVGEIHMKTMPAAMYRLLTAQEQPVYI
smiles,measurement,setting,value
Sc1nc(Cc2ccccc2)nc2ccccc12,IC50,Genome polyprotein,> 49.8 µM (not active)
OC1c2cc(Br)ccc2N=C2CCCCCN21 (stereo not drawn),CC50,Vero [1],61 µM (active)
same,CC50,Vero [2],37.6 µM (active)
COc1ccc2nc(NC(=O)CCc3nc(-c4ccccc4F)no3)sc2c1,IC50,[3],36.6 µM (not active)
CCCc1nc2sc3ccccc3c(=O)c2c(=O)n1Cc1ccco1,IC50,Estrogen receptor beta [4],11.6 µM (active)
same,IC50,Estrogen receptor beta [5],0.709 µM (not active)
same,IC50,[6],9.92 µM (active)
same,EC50,[7],13.8 µM (active)
O=C(NCc1ccccc1)c1ccc(-n2sc3ccccc3c2=O)cc1,IC50,[8],9.98 µM (active)
Nc1cccc(-c2nc3cc(S(=O)(=O)c4ccc5oc(-c6cccc(N)c6)nc5c4)ccc3o2)c1,IC50,[9],13.2 µM (active)
CN(C)c1ccc(-c2nn3c(-c4ccc(Cl)cc4Cl)nnc3s2)cc1,IC50,Bcl-2-related protein A1 [10],> 100 µM (not active)
same,IC50,Bcl-2-related protein A1 [11],> 100 µM (not active)
Oc1ccccc1OCCOc1ccccc1OCCOc1ccccc1O,IC50,[12],1.48 µM (active)

# — ChEMBL document CHEMBL1201862, “PubChem BioAssay data set” (2004)
